Literature values in US8754219B2, “Compounds that modulate intracellular calcium” (Calcimedica, Inc., priority 2010, dated 2014).

What was measured:
Jurkat cells [1] = system: Jurkat cells
Jurkat cells [2] = system: Jurkat cells; remark: listed apart in the source
colon cancer cells [3] = system: colon cancer cells
colon cancer cells [4] = system: colon cancer cells; remark: listed apart in the source
[5] = molecular target: STIM1 and Orai1 in HEK293 cells (Homo sapiens, UniProt Q96D31); conditions: Orai1 expressed along with STIM1
Sequence of STIM1 and Orai1 in HEK293 cells (Q96D31 whole entry): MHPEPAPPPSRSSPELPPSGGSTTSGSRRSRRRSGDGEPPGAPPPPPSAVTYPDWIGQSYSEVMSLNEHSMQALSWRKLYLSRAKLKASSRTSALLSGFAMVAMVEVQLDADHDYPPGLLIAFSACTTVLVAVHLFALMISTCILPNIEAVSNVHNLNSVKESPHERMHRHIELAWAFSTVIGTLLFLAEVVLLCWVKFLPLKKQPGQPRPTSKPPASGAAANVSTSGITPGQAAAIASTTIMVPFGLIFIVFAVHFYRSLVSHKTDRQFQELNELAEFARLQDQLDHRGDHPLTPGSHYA

SMILES | inhibition of SOCE (Jurkat cells [1]) | inhibition of proliferation (Jurkat cells [2]) | inhibition of proliferation (colon cancer cells [3]) | inhibition of SOCE (colon cancer cells [4]) | block of store dependent Ca2+ entry [5]
Cc1nnsc1C(=O)Nc1ccc(-n2nc(C(F)(F)F)cc2C(F)(F)F)cc1 [BTP-2] | inhibits | inhibits | inhibits | inhibits | –
NCCOB(c1ccccc1)c1ccccc1 [2-aminoethoxydiphenylborate] | – | – | – | – | completely blocked
